Results: patent publication US20040097594A1 (priority 1998, published 2004)
Where two headings read alike, the source gives them in different places.

Legend:
[1] = test system: HIV-1 (strain IIIB); test: microbe, parasite or virus in culture; assay type: cell-based; conditions: Human immunodeficiency virus 1, 120 h; MT4 cells infected with HIV-1 strain IIIB, 5 days; lower line of each compound's entry; read-out: IC50 (MT-4 cells)
[2] = molecular target: HIV-1 protease (Human immunodeficiency virus type 1 group M subtype B, UniProt P04585); test: biochemical
[3] = HIV-1 protease, upper line of each compound's entry, read-out: Ki (enzyme)

Row | Compound | IC50 [1] | Ki [2] | Ki [2, 3]
1 | COc1ccc(S(=O)(=O)N(C[C@@H](O)[C@H](Cc2ccccc2)NC(=O)OC(C)(C)C)OC2CCCCC2)cc1 [Compound 23, tert-butyl N-((1S,2R)-1-benzyl-3-(cyclohexyloxy)[(4-methoxyphenyl)sulfonyl]amino-2-hydroxypropyl)carbamate] | > 1 µM | 0.001 to 0.01 µM | 
2 | COc1ccc(S(=O)(=O)N(C[C@@H](O)[C@H](Cc2ccccc2)NC(=O)OCc2ccccc2)OC2CCCC2)cc1 [Compound 24, Phenylmethyl N-((1S,2R)-1-benzyl-3-(cyclopentyloxy)[(4-methoxyphenyl)sulfonyl]amino-2-hydroxypropyl)carbamate] | > 1 µM |  | < 0.001 µM
3 | COc1ccc(S(=O)(=O)N(C[C@@H](O)[C@H](Cc2ccccc2)NC(=O)OCc2cccnc2)OC2CCCC2)cc1 [Compound 25, 3-pyridylmethyl N-((1S,2R)-1-benzyl-3-(cyclopentyloxy)[(4-methoxyphenyl)sulfonyl]amino-2-hydroxypropyl)carbamate] | 0.5 to 1 µM |  | < 0.001 µM
4 | COc1ccc(S(=O)(=O)N(C[C@@H](O)[C@H](Cc2ccccc2)NC(=O)c2ccccc2C)OC2CCCC2)cc1 [Compound 26, N^1-((1S,2R)-1-benzyl-3-(cyclopentyloxy)[(4-methoxyphenyl)sulfonyl]amino-2-hydroxypropyl)-2-methylbenzamide] | > 1 µM |  | 0.001 to 0.01 µM
5 | Nc1cccc(S(=O)(=O)N(C[C@@H](O)[C@H](Cc2ccccc2)NC(=O)O[C@H]2CCOC2)OC2CCCC2)c1 [Compound 27, (3S)tetrahydro-3-furanyl N-(1S,2R)-3-[[(3-aminophenyl)sulfonyl](cyclopentyloxy)amino]-1-benzyl-2-hydroxypropylcarbamate] | 0.5 to 1 µM |  | < 0.001 µM
6 | O=C(O)CNc1cccc(S(=O)(=O)N(CC(O)C(Cc2ccccc2)NC(=O)OC2COC3OCCC23)OC2CCCC2)c1 [Compound 35, 2-2-(3-[[(2R,3S)-3-([(3R,3aS,6aR)hexahydrofuro[2,3-b]furan-3-yloxy]carbonylamino)-hydroxy-4-phenylbutyl](cyclopentyloxy)amino]sulfonylanilino)acetic acid and 2-2-(3-[[(2R,3S)-3-([(3S,3aR,6aS)hexahydrofuro[2,3-b]furan-3-yloxy]carbonylamino)-hydroxy-4-phenylbutyl](cyclopentyloxy)amino]sulfonylanilino)acetic acid] | > 1 µM |  | < 0.001 µM
7 | O=C(NC(Cc1ccccc1)C(O)CN(OC1CCCC1)S(=O)(=O)c1cccc(NCCO)c1)OC1COC2OCCC12 [Compound 36, (3R,3aS,6aR)hexahydrofuro[2,3-b]furan-3-yl N-(1S,2R)-1-benzyl-3-[(cyclopentyloxy)(3-[(2-hydroxyethyl)amino]phenylsulfonyl)amino]-2-hydroxypropylcarbamate and (3S,3aR,6aS)hexahydrofuro[2,3-b]furan-3-yl N-(1S,2R)-1-benzyl-3-[(cyclopentyloxy) (3-[(2-hydroxyethyl)amino]phenylsulfonyl)amino]-2-hydroxypropylcarbamate] | ≤ 0.1 µM |  | < 0.001 µM
8 | CC(C)COC(=O)N(CC(=O)NCCO)c1cccc(S(=O)(=O)N(CC(O)C(Cc2ccccc2)NC(=O)OC2COC3OCCC23)OC2CCCC2)c1 [Compound 37, (3R,3aS,6aR)hexahydrofuro[2,3-b]furan-3-yl N-(1S,2R)-1-benzyl-3-[(cyclopentyloxy)(3-[2-[(2-hydroxyethyl)amino]-2-oxoethyl(isobutoxycarbonyl)amino)phenylsulfonyl)amino]-2-hydroxypropylcarbamate and (3S,3aR,6aS)hexahydrofuro[2,3-b]furan-3-yl N-(1S,2R)-1-benzyl-3-[(cyclopentyloxy)(3-[2-[(2-hydroxyethyl)amino]-2-oxoethyl(isobutoxycarbonyl)amino]phenylsulfonyl)amino]-2-hydroxypropylcarbamate] | ≤ 0.1 µM |  | < 0.001 µM
9 | CC(C)ON(C[C@@H](O)[C@H](Cc1ccccc1)NC(=O)O[C@H]1CO[C@H]2OCC[C@H]21)S(=O)(=O)c1cccc(N)c1 [Compound 38] | ≤ 0.1 µM |  | < 0.001 µM
10 | CS(=O)(=O)Nc1nc2cc(S(=O)(=O)N(C[C@@H](O)[C@H](Cc3ccccc3)NC(=O)O[C@@H]3CO[C@@H]4OCC[C@@H]43)OC3CCCC3)ccc2[nH]1 [Compound 39, (3S,3aR,6aS)Hexahydrofuro[2,3-b]furan-3-yl-N-((1S,2R)-1-benzyl-3-(cyclopentyloxy)(2-[(methylsulfonyl)amino]benzimidazol-5-ylsulfonyl)amino-2-hydroxypropyl)carbamate] | 0.1 to 0.5 µM |  | < 0.001 µM
11 | CS(=O)(=O)Nc1nc2cc(S(=O)(=O)N(C[C@@H](O)[C@H](Cc3ccccc3)NC(=O)O[C@H]3CO[C@H]4OCC[C@H]43)OC3CCCC3)ccc2[nH]1 [Compound 40, (3R,3aS,6aR)Hexahydrofuro[2,3-b]furan-3-yl-N-((1S,2R)-1-benzyl-3-(cyclopentyloxy)(2-[(methylsulfonyl)amino]benzimidazol-5-ylsulfonyl)amino-2-hydroxypropyl)carbamate] | ≤ 0.1 µM |  | < 0.001 µM
12 | O=C(N[C@@H](Cc1ccccc1)[C@H](O)CN(OC1CCCC1)S(=O)(=O)c1cccc(O)c1)O[C@H]1CO[C@H]2OCC[C@H]21 [Compound 44, (3R,3aS,6aR)hexahydrofuro[2,3-b]furan-3-yl N-((1S,2R)-1-benzyl-3-(cyclopentyloxy)[(3-hydroxyphenyl)sulfonyl]amino-2-hydroxypropyl)carbamate] | ≤ 0.1 µM |  | < 0.001 µM
13 | CNc1cccc(S(=O)(=O)N(C[C@@H](O)[C@H](Cc2ccccc2)NC(=O)O[C@H]2CO[C@H]3OCC[C@H]32)OC2CCCC2)c1 [Compound 45, (3R,3aS,6aR)hexahydrofuro[2,3-b]furan-3-yl N-(1S,2R)-3-[[(3-N-methylaminophenyl)sulfonyl](cyclopentyloxy)amino]-1-benzyl-2-hydroxypropylcarbamate] | ≤ 0.1 µM |  | < 0.001 µM
14 | O=C(N[C@@H](Cc1ccccc1)[C@H](O)CN(OC1CCCC1)S(=O)(=O)c1ccc2nc[nH]c2c1)O[C@H]1CO[C@H]2OCC[C@H]21 [Compound 46, (3R,3aS,6aR)hexahydrofuro[2,3-b]furan-3-yl N-(1S,2R)-3-[(1H-benzimidazol-6-ylsulfonyl)(cyclopentyloxy)amino]-1-benzyl-2-hydroxypropylcarbamate] | ≤ 0.1 µM |  | < 0.001 µM
15 | COc1ccc(S(=O)(=O)N(C[C@@H](O)[C@H](Cc2ccccc2)NC(=O)O[C@H]2CCOC2)OC2CCCC2)cc1 [Compound 47, (3S)tetrahydro-3-furanyl N-((1S,2R)-1-benzyl-3-(cyclopentyloxy)[(4-methoxyphenyl)sulfonyl]amino-2-hydroxypropyl)carbamate] | 0.5 to 1 µM |  | < 0.001 µM
16 | COc1ccc(S(=O)(=O)N(C[C@@H](O)[C@H](Cc2ccccc2)NC(=O)OC2COCOC2)OC2CCCC2)cc1 [Compound 48, 1,3-dioxan-5-yl N-((1S,2R)-1-benzyl-3-(cyclopentyloxy)[(4-methoxyphenyl)sulfonyl]amino-2-hydroxypropyl)carbamate] | 0.1 to 0.5 µM |  | < 0.001 µM
